Test results reported in US20100247642A1, “STABLE PHARMACEUTICAL FORMULATION FOR A DPP-IV INHIBITOR” (Phenomix Corporation, priority 2007, published 2010).

Experiment: Excipient compatibility: stability of binary mixture of API plus excipient, purity by HPLC
Format: physicochemical
Description: A comparison of the stability of the API of the current invention was made, using excipients well-known in the art. […] Compound purity was determined by HPLC. The mixture of the API and the calcium phosphate was allowed to stand under the specified conditions for the stated times. Results are given as percent purity of the API at the given time point. […] Again, the mixture of the API and the microcrystalline cellulose was allowed to stand under the specified conditions for the stated times. Results are given as percent purity of the API at the given time point.

O=C(CNC1CCNC1)N1CCCC1B(O)O (stereo not shown) [API, pyrrolidin-3-yl-glycyl-boro-proline]
% API (percent purity of the API) (binary mixture with dibasic calcium phosphate, 2 weeks/loose cap): 77.0%
% API (percent purity of the API) (binary mixture with dibasic calcium phosphate, 2 weeks/tight cap): 77.2%
% API (percent purity of the API) (binary mixture with dibasic calcium phosphate, 4 weeks/tight cap): 71.7%
drop in API purity (binary mixture with dibasic calcium phosphate, within two weeks, regardless of exposure to atmosphere): over 10%
% API (percent purity of the API) (binary mixture with microcrystalline cellulose, 2 weeks/loose cap): 82.1%
% API (percent purity of the API) (binary mixture with microcrystalline cellulose, 4 weeks/tight cap): 90.2%
storage stability of the API in the presence of calcium phosphate (presence of calcium phosphate): massive decomposition
